The nature of data set [1]: Single ascending dose (SAD) study, pharmacokinetics in healthy male subjects. The format is in vivo, human. On the procedure:
Lipid formulations containing PHOSAL® 53 MCT delivered higher exposure in rat and dog when compared to other formulation (e.g., nanosuspension formulation and PEG formulations). […] Formulation 1H containing 70% PHOSAL® 53 MCT and 30% Labrasol® ALF was selected for manufacturing of soft gelatin capsules for clinical trials with a drug formulation fill weight of 500 mg and a total capsule weight is 696 mg. Two dose strength (0.1 mg/subject and 2 mg/subject) and placebo were produced according to GMP for clinical testing.
The clinical development programme in healthy volunteers started with a double-blind, randomised, placebo controlled single ascending dose (SAD) study in males. Seven dose cohorts received increasing oral doses of Compound (1a) or placebo, dose range 0.05-2 mg. Each cohort consisted of 5-6 subjects receiving Compound (1a) and 2 subjects receiving placebo, with the primary objective to evaluate safety and tolerability, the secondary objective being evaluation of pharmacokinetics (PK).
A summary of PK results from the SAD study are shown below in Table 8.

Data set [2] in a line: Single dose pharmacokinetic evaluation of formulations in male Sprague Dawley rats. The format is in vivo. The settings on record: plasma, iv, rat. On the procedure: Single dose pharmacokinetic evaluations of formulations F12-F22 were carried out using male Sprague Dawley rats using conditions as described in Table 1.
Animal ID's were labelled by pen marks on tail and body weight was recorded for calculation of test item volume before administration. Blood was collected capillary from vena saphena from the rats in EDTA coated collection tubes and centrifuged for five minutes at 2000G. Plasma was transferred to pre-labelled Eppendorf tubes and immediately stored in −20° C. The pharmacokinetic analysis was performed using PK Solutions 2.0™, Noncompartmental Pharmacokinetic Data Analysis software.
Cmax (nM) is the maximum concentration. AUC 0-24 (nM*h) is the area under the curve over 24 hours. Tmax (h) is the maximum time in hours. F % is bioavailability. Frel % is the relative bioavailability.

Data set [3] deals with benzodiazepine site of the GABAA receptor complex. The settings on record: cited from earlier work.

The values that follow come from US20230372348A1, “LIPID FORMULATIONS OF TRIAZOLOQUINAZOLINONE COMPOUNDS” (Gabather AB, priority 2020, published 2023).

In general, bioavailability refers to dose-corrected exposure relative to a reference, in per cent.

Molecules are shown by their SMILES.

As to `Cc1ccc(-n2nc3c4cc(Cc5ccccc5)ccc4[nH]c(=O)n3c2=O)cc1` [Compound (1a), 9-benzyl-2-(4-methylphenyl)-2,6-dihydro[1,2,4]triazolo[4,3-c]quinazoline-3,5-dione], the “dose proportionality of Cmax” value in data set [1] (dose range 0.05 mg-2 mg) is “dose proportional”. Also, the “dose proportionality of exposure” value in data set [1] (dose range 0.05 to 2 mg, oral soft gelatin capsules, fasting healthy male volunteers) is given as “close to dose proportional”. Further, the bioavailability in data set [2] (intravenously 1 mg/kg (reference), read-out: F % (bioavailability)) was determined as 100%. Besides, in data set [2] (intravenously 1 mg/kg, read-out: AUC 0-24), the AUC(0-t) turned out to be 1.18 µM·h. Besides, the selectivity entry in data set [3] is given as “selective for the GABAA receptor complex”. Further, the “inhibition of 3H-Flumazenil binding” value in data set [3] (rat membrane preparations) is given as “very potent inhibitor”. The “potency in displacing 3H-Flumazenil relative to diazepam” value in data set [3] (rat membrane preparations, more potent than diazepam) is on record as 10 times.
